Laboratory results from patent US20100004234A1, “SPECIFIC KINASE INHIBITORS” (Kosan Biosciences Incorporated, priority 2004, published 2010).

Experiments:
Assay in all cases: Kinase panel, residual activity
Assay type in all cases: biochemical
Settings in all cases: read-out: Percent residual activity
ASK1(h) = ASK1(h) (Homo sapiens, UniProt Q99683)
Description: (§1) In this panel of 124 kinases, 18 of the 19 kinases identified as having an active site cysteine were inhibited to some extent by hypothemycin at a concentration of 0.2 μM and/or 2 μM.

Aurora-A(h) = Aurora-A(h) (Homo sapiens, UniProt O14965)
Description: as §1

BRK(h) = BRK(h) (Homo sapiens, UniProt Q13882)
Description: as §1

CDK1/cyclinB(h) = CDK1/cyclinB(h) (Homo sapiens, UniProt P06493)
Description: as §1

CDK5/p35(h) = CDK5/p35(h) (Homo sapiens, UniProt Q00535)
Description: as §1

CDK6/cyclinD3(h) = CDK6/cyclinD3(h) (Homo sapiens, UniProt Q00534)
Description: as §1

CK2(h) = CK2(h) (Homo sapiens, UniProt P68400)
Description: as §1

EGFR(h) = EGFR(h) (Homo sapiens, UniProt P00533)
Description: as §1

FGFR3(h) = FGFR3(h) (Homo sapiens, UniProt P22607)
Description: as §1

Fer(h) = Fer(h) (Homo sapiens, UniProt P16591)
Description: as §1

Hck(h) = Hck(h) (Homo sapiens, UniProt P08631)
Description: as §1

IKKα(h) = IKKα(h) (Homo sapiens, UniProt O15111)
Description: as §1

JNK2α2(h) = JNK2α2(h) (Homo sapiens, UniProt P45984)
Description: as §1

Lyn(h) = Lyn(h) (Homo sapiens, UniProt P07948)
Description: as §1

MAPKAP-K3(h) = MAPKAP-K3(h) (Homo sapiens, UniProt Q16644)
Description: as §1

NEK2(h) = NEK2(h) (Homo sapiens, UniProt P51955)
Description: as §1

NEK6(h) = NEK6(h) (Homo sapiens, UniProt Q9HC98)
Description: as §1

NEK7(h) = NEK7(h) (Homo sapiens, UniProt Q8TDX7)
Description: as §1

PAK4(h) = PAK4(h) (Homo sapiens, UniProt O96013)
Description: as §1

PAR-1Bα(h) = PAR-1Bα(h) (Homo sapiens, UniProt Q7KZI7)
Description: as §1

PDGFRα(h) = PDGFRα(h) (Homo sapiens, UniProt P16234)
Description: as §1

PKBγ(h) = PKBγ(h) (Homo sapiens, UniProt Q9Y243)
Description: as §1

PKCβI(h) = PKCβI(h) (Homo sapiens, UniProt P05771)
Description: as §1

PKCβII(h) = PKCβII(h) (Homo sapiens, UniProt P05771)
Description: as §1

PKCι(h) = PKCι(h) (Homo sapiens, UniProt P41743)
Description: as §1

PKCμ(h) = PKCμ(h) (Homo sapiens, UniProt Q15139)
Description: as §1

PKD2(h) = PKD2(h) (Homo sapiens, UniProt Q9BZL6)
Description: as §1

PRAK(h) = PRAK(h) (Homo sapiens, UniProt Q8IW41)
Description: as §1

Pyk2(h) = Pyk2(h) (Homo sapiens, UniProt Q14289)
Description: as §1

Ret(h) = Ret(h) (Homo sapiens, UniProt P07949)
Description: as §1

SAPK3(h) = SAPK3(h) (Homo sapiens, UniProt P53778)
Description: as §1

Syk(h) = Syk(h) (Homo sapiens, UniProt P43405)
Description: as §1

TrkB(h) = TrkB(h) (Homo sapiens, UniProt Q16620)
Description: as §1

ZIPK(h) = ZIPK(h) (Homo sapiens, UniProt O43293)
Description: as §1

c-RAF(h) = c-RAF(h) (Homo sapiens, UniProt P04049)
Description: as §1

cKit(D816V)(h) = cKit(D816V)(h) (Homo sapiens, UniProt P10721, D816V)
Description: as §1

cKit(h) = cKit(h) (Homo sapiens, UniProt P10721)
Description: as §1

EGFR(h), sequence (P00533 25-1210): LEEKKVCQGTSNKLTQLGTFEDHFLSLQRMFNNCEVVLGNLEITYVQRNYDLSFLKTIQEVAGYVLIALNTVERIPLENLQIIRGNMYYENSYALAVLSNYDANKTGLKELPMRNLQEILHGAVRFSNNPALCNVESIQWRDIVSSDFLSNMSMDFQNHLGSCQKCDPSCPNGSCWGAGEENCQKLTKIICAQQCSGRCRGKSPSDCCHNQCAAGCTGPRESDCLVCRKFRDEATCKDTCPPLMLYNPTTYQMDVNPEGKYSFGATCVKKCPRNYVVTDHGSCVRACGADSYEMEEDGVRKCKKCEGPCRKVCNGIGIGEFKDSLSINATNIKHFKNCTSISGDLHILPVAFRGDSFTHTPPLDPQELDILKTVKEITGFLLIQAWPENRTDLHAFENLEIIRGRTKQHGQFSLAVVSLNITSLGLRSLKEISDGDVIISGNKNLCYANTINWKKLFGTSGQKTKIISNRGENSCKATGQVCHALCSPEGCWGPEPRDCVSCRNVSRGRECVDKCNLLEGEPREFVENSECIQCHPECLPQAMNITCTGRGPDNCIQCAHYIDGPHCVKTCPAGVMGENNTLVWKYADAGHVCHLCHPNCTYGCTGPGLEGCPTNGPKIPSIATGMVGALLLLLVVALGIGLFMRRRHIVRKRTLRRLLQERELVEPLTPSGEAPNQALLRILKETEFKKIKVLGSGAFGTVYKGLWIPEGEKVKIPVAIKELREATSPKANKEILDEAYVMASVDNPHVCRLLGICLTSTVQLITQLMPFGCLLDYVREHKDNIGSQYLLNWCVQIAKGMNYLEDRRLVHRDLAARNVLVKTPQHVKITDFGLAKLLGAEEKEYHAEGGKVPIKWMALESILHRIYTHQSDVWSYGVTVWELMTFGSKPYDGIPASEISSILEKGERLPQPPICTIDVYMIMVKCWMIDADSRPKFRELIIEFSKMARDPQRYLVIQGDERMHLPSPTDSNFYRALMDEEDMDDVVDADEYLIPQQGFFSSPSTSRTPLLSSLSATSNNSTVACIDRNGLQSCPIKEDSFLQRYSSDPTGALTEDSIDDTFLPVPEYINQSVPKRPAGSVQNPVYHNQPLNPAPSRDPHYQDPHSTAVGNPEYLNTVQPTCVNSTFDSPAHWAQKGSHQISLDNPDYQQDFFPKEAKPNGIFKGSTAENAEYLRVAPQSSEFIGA
Hck(h), sequence (P08631 whole entry): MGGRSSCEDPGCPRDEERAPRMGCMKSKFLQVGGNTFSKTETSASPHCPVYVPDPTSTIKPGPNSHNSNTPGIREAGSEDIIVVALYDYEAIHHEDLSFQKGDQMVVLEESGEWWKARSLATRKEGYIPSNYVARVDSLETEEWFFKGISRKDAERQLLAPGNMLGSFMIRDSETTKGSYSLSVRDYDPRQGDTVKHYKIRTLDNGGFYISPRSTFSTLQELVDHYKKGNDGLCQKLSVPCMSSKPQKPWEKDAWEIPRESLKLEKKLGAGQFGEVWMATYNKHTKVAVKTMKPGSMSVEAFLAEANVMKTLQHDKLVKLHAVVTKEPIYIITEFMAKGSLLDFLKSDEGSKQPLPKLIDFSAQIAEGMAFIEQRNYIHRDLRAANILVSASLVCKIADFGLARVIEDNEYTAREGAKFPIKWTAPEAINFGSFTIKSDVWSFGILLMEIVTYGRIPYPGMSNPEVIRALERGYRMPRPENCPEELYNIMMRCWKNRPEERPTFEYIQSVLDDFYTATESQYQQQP
TrkB(h), sequence (Q16620 32-822): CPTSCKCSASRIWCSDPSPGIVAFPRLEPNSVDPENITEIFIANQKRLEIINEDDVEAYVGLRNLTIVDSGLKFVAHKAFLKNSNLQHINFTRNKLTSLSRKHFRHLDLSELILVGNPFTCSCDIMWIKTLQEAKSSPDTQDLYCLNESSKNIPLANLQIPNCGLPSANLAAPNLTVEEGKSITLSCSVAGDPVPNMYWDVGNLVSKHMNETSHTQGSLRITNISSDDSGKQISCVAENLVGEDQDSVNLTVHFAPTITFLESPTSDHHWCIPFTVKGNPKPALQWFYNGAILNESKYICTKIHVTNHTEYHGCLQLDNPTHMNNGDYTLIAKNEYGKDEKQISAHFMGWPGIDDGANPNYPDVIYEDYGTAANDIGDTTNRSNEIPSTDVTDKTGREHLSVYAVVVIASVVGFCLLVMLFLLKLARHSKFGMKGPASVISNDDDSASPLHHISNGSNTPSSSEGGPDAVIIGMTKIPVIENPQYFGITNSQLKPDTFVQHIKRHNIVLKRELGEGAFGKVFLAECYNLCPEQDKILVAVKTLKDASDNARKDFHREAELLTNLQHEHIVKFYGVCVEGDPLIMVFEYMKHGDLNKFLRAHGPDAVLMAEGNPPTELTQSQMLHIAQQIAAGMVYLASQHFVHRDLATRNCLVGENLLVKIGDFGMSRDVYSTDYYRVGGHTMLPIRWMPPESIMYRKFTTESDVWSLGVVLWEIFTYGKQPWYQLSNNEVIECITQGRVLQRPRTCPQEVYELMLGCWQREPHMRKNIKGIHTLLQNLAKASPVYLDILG
PDGFRα(h), sequence (P16234 24-1089): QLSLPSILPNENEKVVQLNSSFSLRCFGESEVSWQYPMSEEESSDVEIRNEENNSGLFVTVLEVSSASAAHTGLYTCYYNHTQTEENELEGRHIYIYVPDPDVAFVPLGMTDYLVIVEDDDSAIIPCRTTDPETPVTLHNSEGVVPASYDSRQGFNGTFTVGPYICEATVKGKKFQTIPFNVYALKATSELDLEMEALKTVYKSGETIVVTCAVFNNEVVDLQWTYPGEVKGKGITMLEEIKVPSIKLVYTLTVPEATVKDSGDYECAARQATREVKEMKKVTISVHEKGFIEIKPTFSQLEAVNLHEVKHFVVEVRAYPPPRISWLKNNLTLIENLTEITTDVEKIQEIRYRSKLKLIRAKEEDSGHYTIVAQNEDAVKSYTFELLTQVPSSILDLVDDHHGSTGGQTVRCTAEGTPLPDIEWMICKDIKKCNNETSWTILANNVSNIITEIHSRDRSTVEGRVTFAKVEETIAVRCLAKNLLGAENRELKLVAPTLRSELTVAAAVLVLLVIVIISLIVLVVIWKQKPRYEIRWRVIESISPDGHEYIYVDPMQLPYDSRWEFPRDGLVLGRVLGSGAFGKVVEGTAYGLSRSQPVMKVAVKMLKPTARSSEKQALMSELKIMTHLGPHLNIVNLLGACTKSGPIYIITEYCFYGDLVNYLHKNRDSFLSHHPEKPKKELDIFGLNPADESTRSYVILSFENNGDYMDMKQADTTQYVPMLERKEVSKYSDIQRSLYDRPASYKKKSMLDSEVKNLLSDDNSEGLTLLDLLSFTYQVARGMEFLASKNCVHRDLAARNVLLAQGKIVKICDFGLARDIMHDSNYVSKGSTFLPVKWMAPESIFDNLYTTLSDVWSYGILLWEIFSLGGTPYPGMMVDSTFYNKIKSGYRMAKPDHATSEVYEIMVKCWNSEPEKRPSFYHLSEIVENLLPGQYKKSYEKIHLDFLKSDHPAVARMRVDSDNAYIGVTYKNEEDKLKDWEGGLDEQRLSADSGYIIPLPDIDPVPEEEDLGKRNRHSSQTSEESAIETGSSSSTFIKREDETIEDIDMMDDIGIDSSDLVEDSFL
Lyn(h), sequence (P07948 whole entry): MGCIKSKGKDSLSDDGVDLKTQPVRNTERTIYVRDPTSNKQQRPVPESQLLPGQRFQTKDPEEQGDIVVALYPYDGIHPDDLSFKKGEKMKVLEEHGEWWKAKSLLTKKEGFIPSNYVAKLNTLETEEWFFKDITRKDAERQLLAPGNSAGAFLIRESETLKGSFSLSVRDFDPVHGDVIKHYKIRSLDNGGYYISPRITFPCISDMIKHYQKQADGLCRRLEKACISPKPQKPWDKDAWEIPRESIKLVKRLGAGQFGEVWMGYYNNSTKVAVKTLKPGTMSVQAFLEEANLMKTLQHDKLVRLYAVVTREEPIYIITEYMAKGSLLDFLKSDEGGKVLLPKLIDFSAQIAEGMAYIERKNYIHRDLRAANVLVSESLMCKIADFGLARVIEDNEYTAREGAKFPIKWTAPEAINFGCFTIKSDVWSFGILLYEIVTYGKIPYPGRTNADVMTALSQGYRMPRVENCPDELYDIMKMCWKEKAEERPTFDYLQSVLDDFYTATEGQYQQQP
cKit(h), sequence (P10721 26-976): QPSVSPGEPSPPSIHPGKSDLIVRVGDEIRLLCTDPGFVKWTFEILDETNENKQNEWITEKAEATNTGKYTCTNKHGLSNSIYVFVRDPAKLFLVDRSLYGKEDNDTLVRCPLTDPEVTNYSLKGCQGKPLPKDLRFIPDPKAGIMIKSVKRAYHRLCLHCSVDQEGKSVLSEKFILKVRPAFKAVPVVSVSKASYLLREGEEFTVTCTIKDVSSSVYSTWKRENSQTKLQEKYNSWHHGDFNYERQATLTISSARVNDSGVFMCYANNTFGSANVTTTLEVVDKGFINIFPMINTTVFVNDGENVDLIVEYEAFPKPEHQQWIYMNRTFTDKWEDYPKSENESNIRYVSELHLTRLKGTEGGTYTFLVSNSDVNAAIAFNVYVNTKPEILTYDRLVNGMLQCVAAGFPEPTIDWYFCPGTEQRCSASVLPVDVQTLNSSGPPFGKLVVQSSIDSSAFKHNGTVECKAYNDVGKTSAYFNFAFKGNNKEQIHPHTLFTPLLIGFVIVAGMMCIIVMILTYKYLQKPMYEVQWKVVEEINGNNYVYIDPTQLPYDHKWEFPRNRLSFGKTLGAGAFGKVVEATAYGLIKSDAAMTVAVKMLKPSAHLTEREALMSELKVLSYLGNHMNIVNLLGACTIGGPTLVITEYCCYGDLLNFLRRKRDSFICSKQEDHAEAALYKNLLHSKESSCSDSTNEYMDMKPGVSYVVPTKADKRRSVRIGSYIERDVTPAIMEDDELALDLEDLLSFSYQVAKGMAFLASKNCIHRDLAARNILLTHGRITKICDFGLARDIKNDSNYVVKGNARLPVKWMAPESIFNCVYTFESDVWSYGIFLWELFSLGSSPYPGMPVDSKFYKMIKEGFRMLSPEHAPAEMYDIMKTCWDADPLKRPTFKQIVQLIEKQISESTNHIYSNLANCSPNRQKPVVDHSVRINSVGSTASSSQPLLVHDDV
cKit(D816V)(h), sequence (P10721 26-976 D816V): as the sequence (P10721 26-976) above, with D791V counted along it

SMILES: COc1cc(O)c2c(c1)[C@H]1O[C@@H]1C[C@H](O)[C@H](O)C(=O)/C=C\C[C@H](C)OC2=O [Hypothemycin, hypothemycin]
- remaining activity at 0.2 µM (ASK1(h)): 100%
- remaining activity at 0.2 µM (Aurora-A(h); 0.2 μM): 87%
- remaining activity at 2 µM (Aurora-A(h); 2.0 μM): 91%
- remaining activity at 0.2 µM (BRK(h)): 89%
- remaining activity at 0.2 µM (CDK1/cyclinB(h)): 89%
- remaining activity at 0.2 µM (CDK5/p35(h)): 103%
- remaining activity at 0.2 µM (CDK6/cyclinD3(h)): 95%
- remaining activity at 0.2 µM (CK2(h)): 99%
- remaining activity at 0.2 µM (EGFR(h); 0.2 μM): 106%
- remaining activity at 2 µM (EGFR(h); 2.0 μM): 94%
- remaining activity at 0.2 µM (FGFR3(h)): 102%
- remaining activity at 0.2 µM (Fer(h)): 102%
- remaining activity at 0.2 µM (Hck(h); 0.2 μM): 78%
- remaining activity at 2 µM (Hck(h); 2.0 μM): 91%
- remaining activity at 0.2 µM (IKKα(h)): 101%
- remaining activity at 0.2 µM (JNK2α2(h)): 93%
- remaining activity at 0.2 µM (Lyn(h); 0.2 μM): 82%
- remaining activity at 2 µM (Lyn(h); 2.0 μM): 83%
- remaining activity at 0.2 µM (MAPKAP-K3(h)): 98%
- remaining activity at 0.2 µM (NEK2(h)): 99%
- remaining activity at 0.2 µM (NEK6(h)): 104%
- remaining activity at 0.2 µM (NEK7(h)): 98%
- remaining activity at 0.2 µM (PAK4(h)): 92%
- remaining activity at 0.2 µM (PAR-1Bα(h)): 93%
- remaining activity at 0.2 µM (PDGFRα(h); 0.2 μM): 77%
- remaining activity at 2 µM (PDGFRα(h); 2.0 μM): 20%
- remaining activity at 0.2 µM (PKBγ(h)): 102%
- remaining activity at 0.2 µM (PKCβI(h)): 99%
- remaining activity at 0.2 µM (PKCβII(h)): 97%
- remaining activity at 0.2 µM (PKCι(h)): 108%
- remaining activity at 0.2 µM (PKCμ(h); 0.2 μM): 34%
- remaining activity at 2 µM (PKCμ(h); 2.0 μM): 6%
- remaining activity at 0.2 µM (PKD2(h); 0.2 μM): 31%
- remaining activity at 2 µM (PKD2(h); 2.0 μM): -2%
- remaining activity at 0.2 µM (PRAK(h); 0.2 μM): 20%
- remaining activity at 2 µM (PRAK(h); 2.0 μM): 1%
- remaining activity at 0.2 µM (Pyk2(h)): 84%
- remaining activity at 0.2 µM (Ret(h)): 104%
- remaining activity at 0.2 µM (SAPK3(h)): 104%
- remaining activity at 0.2 µM (Syk(h)): 105%
- remaining activity at 0.2 µM (TrkB(h); 0.2 μM): 58%
- remaining activity at 2 µM (TrkB(h); 2.0 μM): 18%
- remaining activity at 0.2 µM (ZIPK(h)): 96%
- remaining activity at 0.2 µM (c-RAF(h)): 103%
- remaining activity at 0.2 µM (cKit(D816V)(h); 0.2 μM): 57%
- remaining activity at 2 µM (cKit(D816V)(h); 2.0 μM): 0%
- remaining activity at 0.2 µM (cKit(h); 0.2 μM): 93%
- remaining activity at 2 µM (cKit(h); 2.0 μM): 21%
